This series deals with CCRIS mutagenicity, Ames/micronucleus/aberration tests. As to the kind of experiment: CCRIS mutagenicity studies.
The mark [1] stands for this setting: Test System: AMES SALMONELLA TYPHIMURIUM, Strain/Indicator: TA97, Metabolic Activation: NONE, Method: PREINCUBATION
The mark [2] stands for this setting: Test System: AMES SALMONELLA TYPHIMURIUM, Strain/Indicator: TA97, Metabolic Activation: RAT, LIVER, S-9, AROCLOR 1254 (10%), Method: PREINCUBATION
Where [3] appears, read: Test System: AMES SALMONELLA TYPHIMURIUM, Strain/Indicator: TA98, Metabolic Activation: NONE, Method: PREINCUBATION
Where [4] appears, read: Test System: AMES SALMONELLA TYPHIMURIUM, Strain/Indicator: TA98, Metabolic Activation: RAT, LIVER, S-9, AROCLOR 1254 (10%), Method: PREINCUBATION
[5] abbreviates: Test System: AMES SALMONELLA TYPHIMURIUM, Strain/Indicator: TA100, Metabolic Activation: NONE, Method: PREINCUBATION
Where [6] appears, read: Test System: AMES SALMONELLA TYPHIMURIUM, Strain/Indicator: TA100, Metabolic Activation: RAT, LIVER, S-9, AROCLOR 1254 (10%), Method: PREINCUBATION

We go through six molecules from PubChem BioAssay AID1259407 (Chemical Carcinogenesis Research Information System (CCRIS), 2018).

The structures appear in SMILES notation. Calls of active or inactive are those of the source. No rule for the calls is given here.

`C=C(Cl)CCl`: the mutagenic call (End Point: IN VITRO CHROMOSOMAL ABERRATIONS, Test System: CHO-LB CELLS, Metabolic Activation: NONE) is “active; positive”; the mutagenic call (End Point: IN VITRO CHROMOSOMAL ABERRATIONS, Test System: CHO-LB CELLS, Metabolic Activation: RAT, LIVER, S-9, AROCLOR 1254) was “active; positive”; the mutagenic call (Test System: AMES SALMONELLA TYPHIMURIUM, Strain/Indicator: TA97, Metabolic Activation: HAMSTER, LIVER, S-9, AROCLOR 1254 (10%), Method: PREINCUBATION) is “active; positive”; the mutagenic call under setting [1] is “active; positive”; the mutagenic call under setting [2] was “active; positive”; the mutagenic call (Test System: AMES SALMONELLA TYPHIMURIUM, Strain/Indicator: TA98, Metabolic Activation: HAMSTER, LIVER, S-9, AROCLOR 1254 (10%), Method: PREINCUBATION) was “active; positive”. The mutagenic call was “active; positive” (Test System: AMES SALMONELLA TYPHIMURIUM, Strain/Indicator: TA98, Metabolic Activation: HAMSTER, LIVER, S-9, AROCLOR 1254, Method: STANDARD PLATE); “active; positive” under setting [3]; “active; positive” (Test System: AMES SALMONELLA TYPHIMURIUM, Strain/Indicator: TA98, Metabolic Activation: NONE, Method: STANDARD PLATE); “active; positive” under setting [4]; “inactive; negative” (Test System: AMES SALMONELLA TYPHIMURIUM, Strain/Indicator: TA98, Metabolic Activation: RAT, LIVER, S-9, AROCLOR 1254, Method: STANDARD PLATE); “active; positive” (Test System: AMES SALMONELLA TYPHIMURIUM, Strain/Indicator: TA100, Metabolic Activation: HAMSTER, LIVER, S-9, AROCLOR 1254 (10%), Method: PREINCUBATION). In addition, the mutagenic call runs as follows: (Test System: AMES SALMONELLA TYPHIMURIUM, Strain/Indicator: TA100, Metabolic Activation: HAMSTER, LIVER, S-9, AROCLOR 1254, Method: STANDARD PLATE) “active; positive”; under setting [5], “active; positive”; (Test System: AMES SALMONELLA TYPHIMURIUM, Strain/Indicator: TA100, Metabolic Activation: NONE, Method: STANDARD PLATE) “active; positive”; (Test System: AMES SALMONELLA TYPHIMURIUM, Strain/Indicator: TA100, Metabolic Activation: RAT, LIVER, MICROSOMES, PHENOBARBITAL, NADPH COFACTORS, Method: STANDARD PLATE) “inactive; negative”; (Test System: AMES SALMONELLA TYPHIMURIUM, Strain/Indicator: TA100, Metabolic Activation: RAT, LIVER, MICROSOMES, PHENOBARBITAL, Method: STANDARD PLATE) “inactive; negative”; under setting [6], “active; positive”. Also, the mutagenic call is, setting by setting: (Test System: AMES SALMONELLA TYPHIMURIUM, Strain/Indicator: TA100, Metabolic Activation: RAT, LIVER, S-9, AROCLOR 1254, Method: STANDARD PLATE) “active; positive”; (Test System: AMES SALMONELLA TYPHIMURIUM, Strain/Indicator: TA102, Metabolic Activation: S-9, Method: STANDARD PLATE) “inactive; negative”; (Test System: AMES SALMONELLA TYPHIMURIUM, Strain/Indicator: TA1535, Metabolic Activation: HAMSTER, LIVER, S-9, AROCLOR 1254 (10%), Method: PREINCUBATION) “active; positive”; (Test System: AMES SALMONELLA TYPHIMURIUM, Strain/Indicator: TA1535, Metabolic Activation: HAMSTER, LIVER, S-9, AROCLOR 1254, Method: STANDARD PLATE) “active; positive”; (Test System: AMES SALMONELLA TYPHIMURIUM, Strain/Indicator: TA1535, Metabolic Activation: NONE, Method: PREINCUBATION) “active; positive”; (Test System: AMES SALMONELLA TYPHIMURIUM, Strain/Indicator: TA1535, Metabolic Activation: NONE, Method: STANDARD PLATE) “active; positive”. Also, the mutagenic call is “active; positive” (Test System: AMES SALMONELLA TYPHIMURIUM, Strain/Indicator: TA1535, Metabolic Activation: RAT, LIVER, S-9, AROCLOR 1254 (10%), Method: PREINCUBATION); “active; positive” (Test System: AMES SALMONELLA TYPHIMURIUM, Strain/Indicator: TA1535, Metabolic Activation: RAT, LIVER, S-9, AROCLOR 1254, Method: STANDARD PLATE); “inactive; negative” (Test System: AMES SALMONELLA TYPHIMURIUM, Strain/Indicator: TA1537, Metabolic Activation: HAMSTER, LIVER, S-9, AROCLOR 1254, Method: STANDARD PLATE); “inactive; negative” (Test System: AMES SALMONELLA TYPHIMURIUM, Strain/Indicator: TA1537, Metabolic Activation: NONE, Method: STANDARD PLATE); “inactive; negative” (Test System: AMES SALMONELLA TYPHIMURIUM, Strain/Indicator: TA1537, Metabolic Activation: RAT, LIVER, S-9, AROCLOR 1254, Method: STANDARD PLATE); “inactive; negative” (Test System: AMES SALMONELLA TYPHIMURIUM, Strain/Indicator: TA1538, Metabolic Activation: HAMSTER, LIVER, S-9, AROCLOR 1254, Method: STANDARD PLATE). Also, the mutagenic call is “inactive; negative” (Test System: AMES SALMONELLA TYPHIMURIUM, Strain/Indicator: TA1538, Metabolic Activation: NONE, Method: STANDARD PLATE); “inactive; negative” (Test System: AMES SALMONELLA TYPHIMURIUM, Strain/Indicator: TA1538, Metabolic Activation: RAT, LIVER, S-9, AROCLOR 1254, Method: STANDARD PLATE); “active; positive” (Test System: AMES SALMONELLA TYPHIMURIUM, Strain/Indicator: TA1978, Metabolic Activation: NONE, Method: STANDARD PLATE); “active; positive” (Test System: AMES SALMONELLA TYPHIMURIUM, Strain/Indicator: TA1978, Metabolic Activation: RAT, LIVER, S-9, AROCLOR 1254, Method: STANDARD PLATE); “inactive; negative” (Test System: AMES SALMONELLA TYPHIMURIUM, Strain/Indicator: TA2638, Metabolic Activation: S-9, Method: STANDARD PLATE); “inactive; negative” (Test System: E. COLI, Strain/Indicator: WP2 (PKM101), Metabolic Activation: S-9, Method: STANDARD PLATE). In addition, the mutagenic call runs as follows: (Test System: E. COLI, Strain/Indicator: WP2 UVRA (PKM101), Metabolic Activation: S-9, Method: STANDARD PLATE) “active; positive”; (Test System: MOUSE LYMPHOMA, Strain/Indicator: L5178Y (TK+/TK-), Metabolic Activation: NONE, Method: SUSPENSION/PLATE) “active; positive. reevaluation of results: positive”; (Test System: MOUSE LYMPHOMA, Strain/Indicator: L5178Y (TK+/TK-), Metabolic Activation: RAT, LIVER, S-9, AROCLOR 1254, Method: SUSPENSION/PLATE) “active; positive. reevaluation of results: positive”.
Consider `c1ccc2c(c1)cc1cccc3c4cccc5cccc(c54)c2c13`, for which the mutagenic call (Test System: HUMAN H1A1V2 CELLS, Strain/Indicator: TK LOCUS, Metabolic Activation: NONE, Method: SUSPENSION/PLATE) is “active; positive”.
In the case of `Cn1c(NS(=O)(=O)O)nc2c3nc(CO)cnc3ccc21`, the mutagenic call under setting [3] is “inactive; negative” and the mutagenic call (Test System: AMES SALMONELLA TYPHIMURIUM, Strain/Indicator: TA98, Metabolic Activation: RAT, LIVER, S-9, AROCLOR 1254, Method: PREINCUBATION) is “inactive; negative”.
In the case of `COC(=O)[C@@]12Oc3ccc(-c4ccc5c(c4O)C(O)=C4C(=O)C[C@H](C)[C@@H](O)[C@]4(C(=O)OC)O5)c(O)c3C(O)=C1C(=O)C[C@H](C)[C@H]2O`, the mutagenic call under setting [5] is “inactive; negative” and the mutagenic call (Test System: AMES SALMONELLA TYPHIMURIUM, Strain/Indicator: TA100, Metabolic Activation: RAT, LIVER, S-9, PHENOBARBITAL, Method: PREINCUBATION) was “inactive; negative”.
For `[CH]#[W]`, the mutagenic call (End Point: IN VITRO MICRONUCLEUS, Test System: HUMAN LYMPHOCYTES, Metabolic Activation: NONE) was “active; positive”.
As to `O=c1c2[nH]c3ccccc3c2nnn1/N=C/c1ccc([N+](=O)[O-])cc1`, the mutagenic call reads like this: under setting [1], “active; positive”; under setting [2], “active; positive”; under setting [3], “active; positive”; under setting [4], “active; positive”; under setting [5], “active; positive”; under setting [6], “active; positive”. Besides, the mutagenic call runs as follows: (Test System: AMES SALMONELLA TYPHIMURIUM, Strain/Indicator: TA102, Metabolic Activation: NONE, Method: PREINCUBATION) “inactive; negative”; (Test System: AMES SALMONELLA TYPHIMURIUM, Strain/Indicator: TA102, Metabolic Activation: RAT, LIVER, S-9, AROCLOR 1254 (10%), Method: PREINCUBATION) “inactive; negative”.
